# Tests used:
# housefly GABA receptor = biological target: T1, housefly GABA receptor (Musca domestica, UniProt Q75NA5); test: Displacement of 3H-EBOB from the housefly GABA receptor; type: binding
# T1 sequence (Q75NA5 30-576): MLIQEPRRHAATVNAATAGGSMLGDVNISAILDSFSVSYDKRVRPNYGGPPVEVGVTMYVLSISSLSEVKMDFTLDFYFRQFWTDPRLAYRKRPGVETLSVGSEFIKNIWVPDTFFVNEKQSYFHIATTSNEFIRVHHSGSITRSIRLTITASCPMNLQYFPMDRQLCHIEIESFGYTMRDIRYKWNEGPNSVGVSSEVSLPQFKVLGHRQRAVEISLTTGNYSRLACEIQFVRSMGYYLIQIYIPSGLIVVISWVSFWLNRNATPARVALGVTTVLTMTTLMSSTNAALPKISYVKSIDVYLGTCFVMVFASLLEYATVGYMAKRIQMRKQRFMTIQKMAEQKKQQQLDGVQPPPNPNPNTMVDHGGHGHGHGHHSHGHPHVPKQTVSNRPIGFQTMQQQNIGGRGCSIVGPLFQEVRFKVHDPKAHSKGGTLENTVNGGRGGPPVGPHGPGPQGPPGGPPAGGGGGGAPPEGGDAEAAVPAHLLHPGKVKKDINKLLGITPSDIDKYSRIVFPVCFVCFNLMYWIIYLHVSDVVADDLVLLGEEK
# Method: (§1) Compound 1 binds to the housefly GABA receptor with high affinity (IC50=8 nM, for displacement of 2.6 nM of ^3H-EBOB) and can be radiolabeled at high specific activity (>70 Ci/mmol). These are two highly desirable requirements for a new radioligand.
# [1] = Chemical stability of the radioligand; type: physicochemical; settings: avoids periodic purification steps
# Method: as §1
structure (smiles),measurement,setting,value
"[3H]C([3H])([3H])Sc1nn(-c2c(Cl)cc(C(F)(F)F)cc2Cl)c(N)c1C#N [Compound 1, 4-cyano-1-(2,6-dichloro-4-trifluorophenyl)-3-[^3H3]methylthiopyrazol-5-ylamine]",IC50,housefly GABA receptor,8 nM
same,chemical stability,[1],chemically stable

# Source: US6409988B1, “Radiolabeled 1-aryl pyrazoles, the synthesis thereof and the use thereof as pest GABA receptor ligands” (3-Dimensional Pharmaceuticals, Inc., priority 1999, dated 2002)
